Positions count from the first letter of the chain named. pIC50: −log10 of the molar value.
Tests used:
[1] = molecular target: T1, Lin28b ZKD (Homo sapiens, UniProt Q6ZN17); assay: EMSA, Lin28b ZKD:pre-let-7d complex formation; type: binding; conditions: 1 μM Lin28 ZKD, 10 nM IRDye800-labeled pre-let-7d probe
T1 sequence (Q6ZN17 127-166 limits assumed): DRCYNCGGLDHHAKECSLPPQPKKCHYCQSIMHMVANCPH
Procedure: We next validated the newly developed compounds using EMSA, a non-florescent-based assay to detect Lin28b ZKD:pre-let-7 complex formation. Similar to the FP assays, we first optimized the experimental conditions by titrating: (1) IRDye800-labeled pre-let-7d RNA probe, (2) Lin28b ZKD protein, and (3) non-labeled pre-let-7 probe as a competitor (Fig. 2C). For the validation experiments, 1 μM Lin28 ZKD and 10 nM of IRDye800-labeled pre-let-7d probe were mixed with each candidate compound. Compounds C1632 and Ln15 were used as control Lin28 inhibitors, respectively. […] Regardless, we use these two biochemical assays to shortlist the most promising compounds for further characterization. […] While our inhibitors directly target the Lin28 ZKD, it is unclear whether C1632 may bind to domains other than the ZKD or allosterically disrupt Lin28’s capacity to bind its RNA substrates.
EMSA followed the standard protocols we published. An IRDye800CWN-labeled pre-Let-7d RNA probe (5’-IRD800CWN-[…]-3’) was purchased from IDT (Coralville, IA, USA). Lin28a or Lin28b proteins were incubated with 300 nM of probe in a standard 20 uL EMSA reaction in a reaction buffer containing 20 mM HEPES-NaOH, pH 7.4, 2 mM DTT, 3 mM MgCl2, 0.05% NP-40, protease inhibitors, and 0.1 ug poly[dI:dC]. After incubation for 30 min at 37 °C, reactions were loaded onto 4% non-denatured polyacrylamide gel in 0.5× TBE buffer. The RNA oligo bands were visualized by using the Li-Cor Odyssey 9120 Infrared Imaging System.

[2] = molecular target: T1, Lin28b ZKD; assay: Fluorescence polarization (FP) assay, Lin28b ZKD:pre-let-7d interaction; type: binding; conditions: for activity in protein-based assays: FP / EMSA; for pIC50: 10 nM pre-let-7d probe, 1 μM Lin28b ZKD
Procedure: (§1) We conducted two biochemical assays, FP and EMSA, to validate the predicted compounds. To optimize the FP assays, we performed a series of titrations using: (1) FAM-labeled pre-let-7d RNA probe, (2) Lin28b ZKD protein, and (3) non-labeled pre-let-7 probe as a competitor (Fig. 2A). These assays yielded the optimal concentrations required for the subsequent FP validation assays, namely 10 nM for the pre-let-7d probe and 1 μM for Lin28b ZKD protein. The FP signal from the free probe was set as 0%, while the signal from the probe-ZKD complex in the absence of compounds was set as 100%. C1632 was used as a control Lin28 inhibitor (Fig. 2B). […] Since the docking pocket is almost identical between Lin28a and Lin28b homologs, we repeated the FP assays using Lin28a ZKD (Figure S2).
(§2) The fluorescein amidites (FAM)-tagged pre-Let-7d probe with the sequence of […] was purchased from Integrated DNA Technologies (IDT). The probe at the concentrations ranging from 1 nM to 50 uM was incubated with Lin28B (ZKD) or Lin28 (CSD+ZKD) to a final volume of 30 uL at room temperature for 20 min. To read the fluorescence, a TECAN 500 machine was used. Fluorescence polarization was calculated using the following equation:
P=(Fparrallel−Fperpendicular)/(Fparrallel+FperpendicularP)
where P is the fluorescence polarization reading, F parallel is the fluorescence intensity acquired from the parallel excitation plane, and F perpendicular is the fluorescence intensity acquired from the perpendicular direction of the excitation plane. The total fluorescence intensity is estimated using the following equation:
F=Fparallel+2FperpendicularF.
(§3) All the raw FP signal data from the TECAN 500 FP results were analyzed using Prism 8.0 (GraphPad, San Diego, CA, USA); normalized curves were plotted and IC50 values were estimated. All FP data were repeated three to five times.
Figure S1. Lin28b ZKD protein was incubated with the indicated compounds at the concentration of 0, 0.1, 0.2, 0.5, 1, 2, 5, 10, 20, 50, 100, and 200uM. FP signals were measured and plotted relative to that from vehicle.

[3] = system: Lin28b protein expression in DuNE cells; assay: Lin28b protein levels by immunoblotting in DuNE cells; type: cell-based; conditions: 20uM, 72 h
Procedure: We further tested whether the 13 candidate compounds could penetrate the cell membrane, endure cell-mediated metabolism and excretion, and inhibit Lin28 activities inside cancer cells. […] Since let-7 and Lin28b mutually regulate each other’s expression, increased let-7 expression by Lin28 inhibitors would suppress Lin28b protein levels.
Fig. 3 Validate CADD predicted compounds by cell-based assays. A, B DuNE cells were treated with Lin28b inhibitors for 72 h. Let-7d RNA levels were measured by real-time qPCR (A) and Lin28b protein levels were measured by immunoblotting (B). […] Cell proliferation rates were measured by Incucyte. D Overlay of 1H-15N HSQC spectra for Lin28b-ZKD (black), Lin28b-ZKD + Ln15 (orange), and Lin28b-ZKD + Ln268 (blue). Ligands were added in a 20:1 molar ratio. Approximately 20 residues are seen to shift (from black to orange/blue), with ca. 5 resonances disappearing for Lin28b-ZKD in the presence of Ln268. E Overlay of the 20 NMR models for 2CQF (gray) and 2LI8 (blue) showing the rearrangement of residues 137–160 in going from Lin28b-ZKD alone to the conformation with RNA present. The conformation of Lin28b-ZKD in the presence of the ligands described herein might resemble that of 2LI8, but with a larger conformational spread. All results are presented as the mean ± SD.
Total RNA was extracted by TRIZOL reagent (Invitrogen), treated with deoxyribonuclease and reversely transcribed by random hexamers and superscript II (Invitrogen). Real-time qPCR was performed on the ABI PRISM 7900 HT system (Applied Biosystems) using the FastStart Universal SYBR Green Master mix (Roche) following standard protocol as we reported. All real-time qPCR assays were carried out in triplicates from three independent cDNA syntheses. For immunoblotting assays, whole cell lysis was extracted by a buffer containing 50mM of Tris pH8.0, 150mM of NaCl, 1% NP40, 0.5% sodium deoxycholate, 0.1% SDS and proteinase and phosphatase inhibitors (Roche). Protein lysis separated by SDS-PAGE, transferred to polyvinylidene difluoride membrane, and blotted by specific antibodies.

[4] = molecular target: T2, Lin28a ZKD (Homo sapiens, UniProt Q9H9Z2); assay: Fluorescence polarization (FP) assay, Lin28a ZKD:pre-let-7 interaction; type: binding; conditions: 0-200 uM
T2 sequence (Q9H9Z2 137-176 limits assumed): T1 sequence (Q6ZN17 127-166 limits assumed) with S17K, Y27F, M32S, N37S, H40L
Procedure: as §1
as §2, with “equation: […]” for “equation:”
as §3
Figure S2. Lin28a ZKD protein was incubated with the indicated compounds at the concentration of 0, 0.1, 0.2, 0.5, 1, 2, 5, 10, 20, 50, 100, and 200uM. FP signals were measured and plotted relative to that from vehicle.

Compound	inhibition of Lin28b ZKD:pre-let-7d complex formation (EMSA) [1]	activity in protein-based assays [2]	effect on Lin28b protein expression [3]	potency in blocking the Lin28a ZKD:pre-let-7 interaction (FP) relative to parents [4]	further results
O=c1cccc(-c2nc(=O)c3cc(O)c(CO)cc3[nH]2)[nH]1 [Ln276]	capable of inhibiting Lin28:pre-let-7d complex formation in a dose-dependent manner				
O=c1cccc(Nc2ccc(O)cc2O)[nH]1 [Ln295]		inactive			
CC(C)c1cc(Nc2csc(=O)[nH]2)c(O)cc1O [Ln267]		higher potency in FP assays	suppressed Lin28b protein expression	more potent than Ln15 and Ln115	pIC50 [2]: 5.33
O=c1cccc(Nc2ccncc2O)[nH]1 [Ln300]	capable of inhibiting Lin28:pre-let-7d complex formation in a dose-dependent manner	active	suppressed Lin28b protein expression	more potent than Ln15 and Ln115	
Cc1cccc(Nc2csc(=O)[nH]2)c1O [Ln269]	capable of inhibiting Lin28:pre-let-7d complex formation in a dose-dependent manner		suppressed Lin28b protein expression		
O=c1cccc(-c2nc3cc(F)c(O)c(F)c3c(=O)[nH]2)[nH]1 [Ln272]			suppressed Lin28b protein expression	more potent than Ln15 and Ln115	
Cn1cnc2c(=O)[nH]c(-c3nc(=O)c4cc(O)c(F)cc4[nH]3)cc21 [Ln279]	capable of inhibiting Lin28:pre-let-7d complex formation in a dose-dependent manner	active		more potent than Ln15 and Ln115	
O=c1cccc(Nc2ncc(O)cc2O)[nH]1 [Ln298]	capable of inhibiting Lin28:pre-let-7d complex formation in a dose-dependent manner	active	suppressed Lin28b protein expression	more potent than Ln15 and Ln115	
O=c1cccc(Nc2cccc(O)c2O)[nH]1 [Ln306]	capable of inhibiting Lin28:pre-let-7d complex formation in a dose-dependent manner			more potent than Ln15 and Ln115	
CN(C)c1ccc(=O)[nH]c1-c1nc(=O)c2cc(O)c(F)cc2[nH]1 [Ln277]		inactive			
CC(C)(C)c1ccc(O)c(Nc2cccc(=O)[nH]2)c1 [Ln250]					FP potency relative to Ln15 ([2]; FP assays used for SAR guided design): outperformed Ln15
Cc1cc2[nH]c(-c3cccc(=O)[nH]3)nc(=O)c2cc1O [Ln274]	capable of inhibiting Lin28:pre-let-7d complex formation in a dose-dependent manner				
Cc1c(O)cnc(Nc2cccc(=O)[nH]2)c1O [Ln302]	capable of inhibiting Lin28:pre-let-7d complex formation in a dose-dependent manner			more potent than Ln15 and Ln115	pIC50 [2]: 5.44
Cc1c(F)c(O)c(F)c2c(=O)[nH]c(-c3cccc(=O)[nH]3)nc12 [Ln273]			suppressed Lin28b protein expression		
O=c1cccc(Nc2ccccc2O)[nH]1 [Ln296]		inactive			
O=c1cccc(-c2nc(=O)c3cc(O)c(F)cc3[nH]2)[nH]1 [Ln115]					pIC50 [2]: 4.68
Cc1cc(O)cc2c(=O)nc(-c3nccc(=O)[nH]3)[nH]c12 [Ln282]		inactive			
Cc1cc(-c2nc(=O)c3cc(O)c(F)cc3[nH]2)[nH]c(=O)c1 [Ln275]		inactive			

From article PMC11725581, “Developing novel Lin28 inhibitors by computer aided drug design” (Cell Death Discovery, 2025)
